According to patent US20090163481A1, “PPAR-DELTA LIGANDS AND METHODS OF THEIR USE” (priority 2007, published 2009):
Where two headings read alike, the source gives them in different places.

Experiments:
A549 cells = assay: Apoptosis, Cell Death Detection ELISA (DNA fragmentation) in A549 cells; assay type: cell-based, human; settings: A549, GW501 1 μM with SR13904 15 μM
Protocol: Referring now to FIG. 6, SR13904 treatment of cancer cells results in increased apoptosis. A549 cells (2×10^4 cells/well) were incubated in 0.5% media (96 well plates) SR13904 for 40 h. The relative degrees of apoptosis were determined using a Cell Death Detection ELISA (Roche). SR represents SR13904. ***p=<0.001 SR vs. SR+GW501.
SR13904 treatment results in increased apoptosis. Down-regulation of PPARδ, either by genetic knockout or by the treatment with 13-S—HODE (15-lipoxygenase-1 product), induces apoptosis in colorectal cancer cells. The effects of SR13904 (15 μM) GW501 (1 μM) on survival of A549 cells (0.5% serum) was determined. Relative degrees of apoptosis were measured using a DNA fragmentation assay.

PPARδ = target: T1, PPARδ (Homo sapiens, UniProt Q03181); assay: PPRE promoter/luciferase reporter (transactivation) assay in U2-OS cells; assay type: cell-based
T1 construct: expressed in transfected cells; host or cells: U2-OS (human bone cancer line)
T1 sequence (Q03181 1-441): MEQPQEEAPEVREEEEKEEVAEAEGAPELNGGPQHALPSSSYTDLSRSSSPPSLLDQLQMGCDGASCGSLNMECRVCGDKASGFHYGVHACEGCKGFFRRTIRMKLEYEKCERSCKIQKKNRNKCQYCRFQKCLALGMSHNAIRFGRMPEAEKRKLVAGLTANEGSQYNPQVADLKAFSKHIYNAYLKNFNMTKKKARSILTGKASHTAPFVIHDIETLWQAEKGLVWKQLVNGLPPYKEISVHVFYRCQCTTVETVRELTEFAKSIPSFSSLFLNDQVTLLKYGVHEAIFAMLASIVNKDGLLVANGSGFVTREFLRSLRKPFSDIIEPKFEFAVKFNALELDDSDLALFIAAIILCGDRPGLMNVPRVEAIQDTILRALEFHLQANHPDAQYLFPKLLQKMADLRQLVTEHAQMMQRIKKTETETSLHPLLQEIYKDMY
Protocol: (§1) General Testing Procedures. Each ligand was screened for PPARδ binding and transactivation activity through the use of two complementary reporter assays as described below. In both systems, transfection efficiency was standardized by co-transfection of a control Renilla luciferase. U2-OS (human bone cancer line) cells were used for both assays because this is the cell line of choice for screening PPAR ligands. At 18 h post-transfection, GW 501, with and without the ligands of the disclosure, was added to the cells and incubated for an additional 24 h. The cells were then harvested and luciferase activities profiled.
A promoter/luciferase reporter assay. This assay involves co-transfection of a PPARδ expression vector and a plasmid containing a luciferase gene under the control of PPARδ responsive DNA element (three copies of a consensus PPAR response element, PPRE). This assay was used to directly test ligand effects on PPARδ-responsive genes.
(§2) Referring to FIG. 3, U2-OS cells were transiently transfected with appropriate expression and reporter vectors. Ligands were added to the cell cultures 24 h post-transfection and incubated for an additional 16 h. Lipoprotein lipase (LPL; 2 μg/ml) was added with VLDL (5 μg/ml) to release PPARδ-active triglycerides. FIG. 3A: PPARδ LBD/Gal4/UAS-tk-luc competition assays with VLDL SR13904 (0-10 μM). The reporter activation (fold increase over blank) is presented relative to GW501516 at 7 nM (fold increase over blank=100). FIG. 3B: PPRE reporter assays using 0, 1, and 10 μM SR13904+VLDL. All assays were repeated in triplicate.

LBD of PPARδ protein = target: T2, LBD of PPARδ protein (Homo sapiens, UniProt Q03181); assay: PPARδ ligand-binding domain (LBD)/Gal4 UAS-tk-luciferase reporter assay in U2-OS cells; assay type: cell-based; settings: from GAL-4 binding and PPRE transactivation reporter screens
T2 construct: co-transfection of a plasmid containing an LBD/Gal4 fusion construct; expressed in transfected cells; host or cells: U2-OS (human bone cancer line)
T2 sequence (Q03181 211-439 limits assumed): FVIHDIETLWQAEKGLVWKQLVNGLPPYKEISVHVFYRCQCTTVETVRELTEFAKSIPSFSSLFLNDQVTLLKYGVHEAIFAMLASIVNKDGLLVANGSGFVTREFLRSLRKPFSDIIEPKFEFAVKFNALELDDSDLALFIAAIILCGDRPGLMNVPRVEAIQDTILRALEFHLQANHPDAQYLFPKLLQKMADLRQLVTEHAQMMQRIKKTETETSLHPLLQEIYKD
Protocol: as §1
A PPARδ protein ligand-binding domain (LBD) assay. The LBD assay consists of cellular co-transfection of a plasmid containing an LBD/Gal4 fusion construct and a vector containing a UAS-tk-luciferase reporter construct under the transcriptional control of a Gal4 upstream activating sequence. This system was used to test for binding activities of candidate PPARδ ligands to the LBD of PPARδ protein.
as §2

[1] = Proliferation assay of Table 2 (cell line not stated); assay type: cell-based; settings: concentration that inhibits cell viability (or growth) by 50% relative to vehicle control; read-out: Prolif IC50
Protocol: (§3) The LANTHA SCREEN™ TR-FRET PPARδ Competitive Binding Assay was conducted for a variety of compounds according to the instructions provided by the manufacturer (Invitrogen). In addition, proliferation assays were conducted. In Table 2, “Prolif IC50” is the concentration that inhibits cell viability (or growth) by 50% relative to a vehicle control, and “TR-F binding IC50 (μM)” is the concentration that competes binding by a labeled pan-agonist to the ligand binding domain of PPAR delta, by 50%.

[2] = target: T3, ligand binding domain of PPAR delta (Homo sapiens, UniProt Q03181); assay: LANTHA SCREEN TR-FRET PPARδ Competitive Binding Assay
T3 construct: purchased Invitrogen
T3 sequence (Q03181 211-439 limits assumed): T2 sequence (Q03181 211-439 limits assumed)
Protocol: as §3

[3] = Solubility in DMSO (noted in binding assay column); assay type: physicochemical
[4] = competes binding by a labeled pan-agonist by 50%, * = determined by approximation from a semi log graph, read-out: TR-F binding IC50

Compound | IC50 [2, 4] | IC50 [1] | also measured
Cc1cc(SCc2sc(-c3ccc(C(F)(F)F)cc3)nc2C)ccc1OCC(=O)O [GW 501516, reference compound] | – | – | effect of co-treatment on SR13904-induced apoptosis (A549 cells): markedly alleviated
CCCc1cc(SCc2sc(-c3cccc4ccccc34)nc2C)ccc1OCC(=O)O [SR 13905] | – | – | inhibition of PPARδ-mediated transactivation (PPARδ): appear to inhibit
Cc1cc(SCc2sc(-c3ccc(C(C)(C)C)cc3)nc2C)ccc1OCC(=O)O [SR 13906] | – | – | PPARδ ligand profile (agonist/antagonist) (LBD of PPARδ protein): low-affinity agonists; inhibition of PPARδ-mediated transactivation (PPARδ): appear to inhibit
CCCc1cc(SCc2sc(-c3ccc(C(C)(C)C)cc3)nc2C)ccc1OCC(=O)O [SR 13907] | – | – | PPARδ ligand profile (agonist/antagonist) (LBD of PPARδ protein): low-affinity agonists; inhibition of PPARδ-mediated transactivation (PPARδ): appear to inhibit
CCCc1cc(SCc2sc(-c3ccc(CC)cc3)nc2C)ccc1OCC(N)=O [SR 13910] | – | – | PPARδ ligand profile (agonist/antagonist) (LBD of PPARδ protein): low-affinity agonists
Cc1cc(SCc2sc(-c3ccc4ccccc4c3)nc2C)ccc1OCC(=O)O [SR 13961] | – | – | PPARδ ligand profile (agonist/antagonist) (LBD of PPARδ protein): low-affinity agonists
Cc1cc(SCCOC2c3ccccc3-c3ccccc32)ccc1OCC(=O)O [SRI-010248] | > 30 µM | 9 µM | –
Cc1cc(SCCn2c3ccccc3c3ccccc32)ccc1OCC(=O)O [SRI-010252] | > 30 µM | 9 µM | –
COc1ccc(CN(C(=O)CSc2ccc(OCC(=O)O)c(C)c2)C(c2ccccc2)c2ccccc2)cc1OC [SRI-010259] | > 30 µM | > 40 µM | –
Cc1cc(SCC(=O)NC(c2ccccc2)c2ccccc2)ccc1OCC(=O)O [SRI-010260] | – | > 40 µM | solubility in DMSO [3]: not soluble in DMSO
Cc1cc(SCCC(=O)N(Cc2ccc(Cl)cc2Cl)C(c2ccccc2)c2ccccc2)ccc1OCC(=O)O [SRI-010264] | > 25 µM | 5.9 µM | –
COc1ccc(CN(C(=O)CCSc2ccc(OCC(=O)O)c(C)c2)C(c2ccccc2)c2ccccc2)cc1OC [SRI-010265] | > 30 µM | > 40 µM | –
Cc1cc(SCCC(=O)NC(c2ccccc2)c2ccccc2)ccc1OCC(=O)O [SRI-010266] | > 30 µM | > 40 µM | –

The next lines start with results.

IC50 [2, 4] | Compound | IC50 [1] | also measured
0.85 µM | Cc1cc(SCCOC(c2ccc(F)cc2)c2ccc(F)cc2)ccc1OCC(=O)O [SRI-010249] | 5.4 µM | IC50 ([2]; repeat determination of TR-F binding IC50, read-out: repeat TR-F): 1.2 µM
3.8 µM | Cc1cc(SCCN2c3ccccc3Sc3ccc(C(F)(F)F)cc32)ccc1OCC(=O)O [SRI-010250] | 7 µM | –
13.7 µM | Cc1cc(SCCN2c3ccccc3Sc3ccccc32)ccc1OCC(=O)O [SRI-010251] | 7.6 µM | –
3 µM | Cc1cc(SCCOC(c2ccccc2)c2ccccc2)ccc1OCC(=O)O [SRI-010253] | 14 µM | –
1.3 µM | Cc1cc(SCCOC(c2ccccc2)c2ccc(C(F)(F)F)cc2)ccc1OCC(=O)O (stereo not shown) [SRI-010254] | 7.4 µM | –
> 12 µM | Cc1cc(SCC(=O)N(Cc2ccccc2)C(c2ccccc2)c2ccccc2)ccc1OCC(=O)O [SRI-010255] | 5 µM | –
> 18 µM | Cc1cc(SCC(=O)N(Cc2ccc(Cl)cc2)C(c2ccccc2)c2ccccc2)ccc1OCC(=O)O [SRI-010256] | – | –
> 23 µM | Cc1cc(SCC(=O)N(Cc2ccc(F)c(F)c2)C(c2ccccc2)c2ccccc2)ccc1OCC(=O)O [SRI-010257] | 9.1 µM | –
> 14 µM | Cc1cc(SCC(=O)N(Cc2ccc(Cl)cc2Cl)C(c2ccccc2)c2ccccc2)ccc1OCC(=O)O [SRI-010258] | 4.8 µM | –
> 20 µM | Cc1cc(SCCC(=O)N(Cc2ccccc2)C(c2ccccc2)c2ccccc2)ccc1OCC(=O)O [SRI-010261] | 8.5 µM | –
> 18 µM | Cc1cc(SCCC(=O)N(Cc2ccc(Cl)cc2)C(c2ccccc2)c2ccccc2)ccc1OCC(=O)O [SRI-010262] | 5.6 µM | –
> 25 µM | Cc1cc(SCCC(=O)N(Cc2ccc(F)c(F)c2)C(c2ccccc2)c2ccccc2)ccc1OCC(=O)O [SRI-010263] | 9.1 µM | –
